Data: the NIST ThermoML archive (doi:10.1021/acs.jced.8b00537)

Test: xn = mol fraction of the nth substance listed
Conditions: 100 kPa, Liquid; for viscosity: Capillary tube (Ostwald / Ubbelohde) method; for speed of sound: Frequency=3 MHz, Single path-length method; for mass density: Vibrating tube method

O=S(=O)([N-]S(=O)(=O)C(F)(F)F)C(F)(F)F.On1cc[n+](O)c1 [1,3-dihydroxyimidazolium bis(trifluoromethylsulfonyl)imide] + CCCO
Conditions | mass density [kg/m3] | speed of sound [m/s] | viscosity [mPa·s]
293.15 K, x1 = 0.0999 | 1039 | 1192.5 | 6.428
293.15 K, x1 = 0.1994 | 1207 | 1175.2 | 10.56
293.15 K, x1 = 0.2993 | 1333 | 1166.5 | 18.74
293.15 K, x1 = 0.3992 | 1430 | 1167 | 31.05
293.15 K, x1 = 0.4985 | 1510 | 1170.2 | 46.71
293.15 K, x1 = 0.5999 | 1576 | 1175.3 | 65.75
293.15 K, x1 = 0.6989 | 1631 | 1182.6 | 99.34
293.15 K, x1 = 0.7996 | 1680 | 1190.1 | 120.22
293.15 K, x1 = 0.8973 | 1719 | 1198.4 | 184.26
293.15 K, x1 = 1 | 1746 | 1208.2 | 238.6
298.15 K, x1 = 0.0999 | 1034 | 1177.8 | 5.606
298.15 K, x1 = 0.1994 | 1202 | 1161.9 | 9.087
298.15 K, x1 = 0.2993 | 1328 | 1154 | 15.55
298.15 K, x1 = 0.3992 | 1425 | 1155 | 25.3
298.15 K, x1 = 0.4985 | 1505 | 1158.3 | 37.27
298.15 K, x1 = 0.5999 | 1570 | 1163.5 | 51.4
298.15 K, x1 = 0.6989 | 1625 | 1171 | 76.1
298.15 K, x1 = 0.7996 | 1674 | 1178.4 | 90.44
298.15 K, x1 = 0.8973 | 1713 | 1186.7 | 135.12
298.15 K, x1 = 1 | 1740 | 1196.6 | 171.83
303.15 K, x1 = 0.0999 | 1030 | 1163.2 | 4.921
303.15 K, x1 = 0.1994 | 1197 | 1148.7 | 7.864
303.15 K, x1 = 0.2993 | 1323 | 1141.6 | 13.07
303.15 K, x1 = 0.3992 | 1419 | 1143.1 | 20.93
303.15 K, x1 = 0.4985 | 1499 | 1146.7 | 30.21
303.15 K, x1 = 0.5999 | 1564 | 1152 | 40.94
303.15 K, x1 = 0.6989 | 1620 | 1159.5 | 59.33
303.15 K, x1 = 0.7996 | 1668 | 1166.9 | –
303.15 K, x1 = 0.8973 | 1707 | 1175.2 | 101.71
303.15 K, x1 = 1 | 1735 | 1185.2 | 127.52
308.15 K, x1 = 0.0999 | 1025 | 1148.9 | 4.34
308.15 K, x1 = 0.1994 | 1192 | 1135.7 | 6.844
308.15 K, x1 = 0.2993 | 1318 | 1129.4 | 11.09
308.15 K, x1 = 0.3992 | 1414 | 1131.4 | 17.59
308.15 K, x1 = 0.4985 | 1494 | 1135.2 | 24.91
308.15 K, x1 = 0.5999 | 1559 | 1140.7 | 33.19
308.15 K, x1 = 0.6989 | 1614 | 1148.3 | 47.17
308.15 K, x1 = 0.7996 | 1662 | 1155.7 | 54.77
308.15 K, x1 = 0.8973 | 1702 | 1164 | 78.32
308.15 K, x1 = 1 | 1729 | 1174.1 | 96.92
313.15 K, x1 = 0.0999 | 1020 | 1134.6 | 3.849
313.15 K, x1 = 0.1994 | 1187 | 1122.8 | 5.991
313.15 K, x1 = 0.2993 | 1313 | 1117.3 | 9.541
313.15 K, x1 = 0.3992 | 1409 | 1119.8 | 14.92
313.15 K, x1 = 0.4985 | 1489 | 1123.9 | 20.85
313.15 K, x1 = 0.5999 | 1553 | 1129.5 | 27.38
313.15 K, x1 = 0.6989 | 1608 | 1137.2 | 37.93
313.15 K, x1 = 0.7996 | 1657 | 1144.6 | 43.92
313.15 K, x1 = 0.8973 | 1696 | 1153 | 61.38
313.15 K, x1 = 1 | 1723 | 1163.1 | 75.56
318.15 K, x1 = 0.0999 | 1016 | 1120.5 | 3.434
318.15 K, x1 = 0.1994 | 1182 | 1110.1 | 5.275
318.15 K, x1 = 0.2993 | 1308 | 1105.4 | 8.279
318.15 K, x1 = 0.3992 | 1404 | 1108.3 | 12.81
318.15 K, x1 = 0.4985 | 1483 | 1112.7 | 17.64
318.15 K, x1 = 0.5999 | 1548 | 1118.5 | 22.86
318.15 K, x1 = 0.6989 | 1603 | 1126.3 | 31.31
318.15 K, x1 = 0.7996 | 1651 | 1133.7 | 35.76
318.15 K, x1 = 0.8973 | 1690 | 1142.1 | 49.13
318.15 K, x1 = 1 | 1717 | 1152.3 | 59.8
323.15 K, x1 = 0.0999 | 1011 | 1106.4 | 3.072
323.15 K, x1 = 0.1994 | 1178 | 1097.4 | 4.675
323.15 K, x1 = 0.2993 | 1303 | 1093.6 | 7.234
323.15 K, x1 = 0.3992 | 1398 | 1097 | 11.09
323.15 K, x1 = 0.4985 | 1478 | 1101.6 | 15.11
323.15 K, x1 = 0.5999 | 1542 | 1107.6 | 19.34
323.15 K, x1 = 0.6989 | 1597 | 1115.5 | 25.89
323.15 K, x1 = 0.7996 | 1645 | 1123 | 29.52
323.15 K, x1 = 0.8973 | 1684 | 1131.4 | 39.97
323.15 K, x1 = 1 | 1711 | 1141.6 | 48.29
328.15 K, x1 = 0.0999 | 1006 | 1092.4 | 2.759
328.15 K, x1 = 0.1994 | 1173 | 1084.9 | 4.171
328.15 K, x1 = 0.2993 | 1298 | 1082 | 6.368
328.15 K, x1 = 0.3992 | 1393 | 1085.8 | 9.679
328.15 K, x1 = 0.4985 | 1472 | 1090.7 | 13.05
328.15 K, x1 = 0.5999 | 1537 | 1096.8 | 16.53
328.15 K, x1 = 0.6989 | 1592 | 1104.8 | 21.88
328.15 K, x1 = 0.7996 | 1640 | 1112.3 | 24.73
328.15 K, x1 = 0.8973 | 1679 | 1120.8 | 32.99
328.15 K, x1 = 1 | 1705 | 1131.1 | 39.57
333.15 K, x1 = 0.0999 | 1002 | 1078.5 | 2.491
333.15 K, x1 = 0.1994 | 1168 | 1072.4 | 3.742
333.15 K, x1 = 0.2993 | 1293 | 1070.4 | 5.644
333.15 K, x1 = 0.3992 | 1388 | 1074.7 | 8.509
333.15 K, x1 = 0.4985 | 1467 | 1080 | 11.37
333.15 K, x1 = 0.5999 | 1532 | 1086.1 | 14.29
333.15 K, x1 = 0.6989 | 1586 | 1094.2 | 18.68
333.15 K, x1 = 0.7996 | 1634 | 1101.8 | 20.94
333.15 K, x1 = 0.8973 | 1673 | 1110.3 | 27.57
333.15 K, x1 = 1 | 1700 | 1120.7 | 32.88
338.15 K, x1 = 0.0999 | 997 | 1064.5 | 2.255
338.15 K, x1 = 0.1994 | 1163 | 1060.1 | 3.375
338.15 K, x1 = 0.2993 | 1288 | 1059 | 5.034
338.15 K, x1 = 0.3992 | 1383 | 1063.7 | 7.522
338.15 K, x1 = 0.4985 | 1462 | 1069.3 | 9.989
338.15 K, x1 = 0.5999 | 1526 | 1075.6 | 12.46
338.15 K, x1 = 0.6989 | 1581 | 1083.8 | 16.12
338.15 K, x1 = 0.7996 | 1628 | 1091.5 | 17.87
338.15 K, x1 = 0.8973 | 1667 | 1100 | 23.34
338.15 K, x1 = 1 | 1694 | 1110.4 | 27.69
343.15 K, x1 = 0.0999 | 992 | 1050.7 | 2.051
343.15 K, x1 = 0.1994 | 1158 | 1048 | 3.057
343.15 K, x1 = 0.2993 | 1283 | 1047.8 | 4.514
343.15 K, x1 = 0.3992 | 1378 | 1052.8 | 6.692
343.15 K, x1 = 0.4985 | 1456 | 1058.9 | 8.831
343.15 K, x1 = 0.5999 | 1521 | 1065.1 | 10.95
343.15 K, x1 = 0.6989 | 1575 | 1073.5 | 14.03
343.15 K, x1 = 0.7996 | 1623 | 1081.2 | 15.41
343.15 K, x1 = 0.8973 | 1662 | 1089.8 | 19.94
343.15 K, x1 = 1 | 1688 | 1100.2 | 23.59
